Results as given in patent US20250000843A1, “LIGNAN-INSPIRED COMPOUNDS, METHODS OF MAKING, AND USING THEREOF” (IOWAIBO, INC., priority 2023, published 2025).
pIC50: −log10 of the molar value.

Key:
[1] = test system: PC3, a human prostate cancer cell line; assay: MTT toxicity assay in PC3 prostate cancer cells; format: cell-based
Protocol: Toxicity of the dibenzyl butyl lactone derivative (3-[(3,4-dimethoxyphenyl)cyclopentyl], 4-[(3-hydroxyphenol)methyl]oxolan-2-one) in breast cancer cells was evaluated using MTT assay. The MTT toxicity test is a colorimetric assay to measure cells' metabolic activity by serving as a substrate of cellular enzymes that reduce the tetrazolium orange dye, MTT (3-(4,5-Dimethylthiazol-2-yl)-2,5-diphenyltetrazolium bromide) to its insoluble, formazan, giving a purple color. The rate of conversion is directly proportional to cells' mitochondrial metabolic activity via NAD (P) H-dependent cellular oxidoreductase enzymes and serves as a surrogate marker of cell viability.
Cells previously expanded were seeded in 96 well plates at 1.9×10^5 and 9.6×10^4 cells/plate for 24- and 72-hours treatment respectively. This concentration is known to show the best window for the MTT assay, with better sensitivity and low variability.
5 mg of powdered enterolactone, dibenzyl butyl lactone derivative enantiomer A, and dibenzyl butyl lactone derivative enantiomer B were dissolved in 500 μl of DMSO at room temperature. Eight-point curves, ⅓ dilutions (highest concentration 125 μM), were prepared.
Twenty-four hours following the seeding process, the cells were washed once with phosphate buffered saline (PBS) and treated with the respective compounds in cell culture media. Each condition was tested in triplicates. For positive and negative controls, 8 mM methyl methane sulfonate (MMS) and DMSO 100% were used respectively.
Following compound addition, the plates were incubated for 24 and 72 hours. After the treatment period, cells were washed twice with PBS and media was replaced with MTT reagent at 0.5 mg/ml in Dulbecco's modified Eagle medium (DMEM) without phenol red. The plates were gently shaken and incubated for 4 hours. After the incubation the medium was removed and replaced by DMSO. The plates were gently shaken to solubilize the formazan crystals. Absorbance was measured using an Envision multiplate reader at a wavelength of 570 nm.
Toxicity of the dibenzyl butyl lactone derivative (3-[(3,4-dimethoxyphenyl)cyclopentyl], 4-[(3-hydroxyphenol)methyl]oxolan-2-one) in prostate cancer cells was evaluated using MTT assay. The same methods as those used in Example 2 were employed, except the cell line used was PC3, a human prostate cancer cell line, and cell cultures were established in Kaighn's modification of Ham's […] medium.
MTT assay results are shown in Tables 16-21 and expressed as the percentage of cell death after treatment.

telomerase = telomerase (Homo sapiens, UniProt O14746); assay: Q-TRAP telomerase activity in MCF7 breast cancer cells; format: cell-based; parameters: allow the enzymatic addition of telomeric DNA repeats by endogenous telomerase; endogenous in cells
Sequence of telomerase (O14746 whole entry): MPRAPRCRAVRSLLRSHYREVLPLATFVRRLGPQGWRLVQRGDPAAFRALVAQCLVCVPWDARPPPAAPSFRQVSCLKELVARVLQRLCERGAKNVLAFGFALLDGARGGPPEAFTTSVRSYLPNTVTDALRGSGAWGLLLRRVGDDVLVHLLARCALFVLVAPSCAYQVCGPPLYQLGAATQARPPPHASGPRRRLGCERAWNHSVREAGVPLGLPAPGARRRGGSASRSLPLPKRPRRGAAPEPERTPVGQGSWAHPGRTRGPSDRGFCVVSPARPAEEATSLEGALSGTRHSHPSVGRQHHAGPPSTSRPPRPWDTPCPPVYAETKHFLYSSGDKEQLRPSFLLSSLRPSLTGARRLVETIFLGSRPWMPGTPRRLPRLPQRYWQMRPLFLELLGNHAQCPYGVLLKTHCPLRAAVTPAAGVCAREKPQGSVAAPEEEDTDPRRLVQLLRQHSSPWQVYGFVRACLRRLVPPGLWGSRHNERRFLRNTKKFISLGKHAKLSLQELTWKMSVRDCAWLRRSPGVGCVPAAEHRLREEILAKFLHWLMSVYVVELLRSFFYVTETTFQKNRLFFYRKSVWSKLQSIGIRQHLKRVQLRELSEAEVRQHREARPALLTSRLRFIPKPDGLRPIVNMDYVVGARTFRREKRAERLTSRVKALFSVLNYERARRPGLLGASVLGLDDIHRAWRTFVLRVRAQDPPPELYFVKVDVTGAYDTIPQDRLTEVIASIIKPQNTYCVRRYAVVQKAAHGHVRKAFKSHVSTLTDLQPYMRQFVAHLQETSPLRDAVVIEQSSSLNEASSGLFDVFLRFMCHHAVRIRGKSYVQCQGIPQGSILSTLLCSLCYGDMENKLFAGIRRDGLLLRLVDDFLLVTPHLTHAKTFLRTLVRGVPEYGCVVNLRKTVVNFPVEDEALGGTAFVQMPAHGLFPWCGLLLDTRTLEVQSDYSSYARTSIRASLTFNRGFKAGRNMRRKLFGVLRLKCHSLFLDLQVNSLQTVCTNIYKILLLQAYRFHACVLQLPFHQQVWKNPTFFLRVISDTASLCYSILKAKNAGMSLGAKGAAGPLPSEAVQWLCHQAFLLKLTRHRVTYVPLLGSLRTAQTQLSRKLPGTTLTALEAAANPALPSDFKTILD
Sequence of telomerase (O60832 whole entry partner): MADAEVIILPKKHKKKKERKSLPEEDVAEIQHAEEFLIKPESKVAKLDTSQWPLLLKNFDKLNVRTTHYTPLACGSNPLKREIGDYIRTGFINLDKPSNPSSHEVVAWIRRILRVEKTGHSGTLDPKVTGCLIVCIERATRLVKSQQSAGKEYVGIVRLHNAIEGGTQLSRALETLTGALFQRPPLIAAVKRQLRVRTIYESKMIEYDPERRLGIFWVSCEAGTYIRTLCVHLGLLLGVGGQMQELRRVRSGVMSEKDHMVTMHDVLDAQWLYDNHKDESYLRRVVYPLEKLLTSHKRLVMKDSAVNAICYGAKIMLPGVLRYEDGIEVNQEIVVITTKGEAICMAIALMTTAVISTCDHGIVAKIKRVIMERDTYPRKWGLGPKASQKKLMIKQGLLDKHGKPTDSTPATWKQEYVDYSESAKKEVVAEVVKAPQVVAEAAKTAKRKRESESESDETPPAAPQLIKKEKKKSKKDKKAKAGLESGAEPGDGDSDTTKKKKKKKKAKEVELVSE
Sequence of telomerase (Q9NPE3 whole entry partner): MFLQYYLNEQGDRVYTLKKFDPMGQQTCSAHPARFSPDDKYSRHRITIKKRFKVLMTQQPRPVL
Sequence of telomerase (Q9NX24 whole entry partner): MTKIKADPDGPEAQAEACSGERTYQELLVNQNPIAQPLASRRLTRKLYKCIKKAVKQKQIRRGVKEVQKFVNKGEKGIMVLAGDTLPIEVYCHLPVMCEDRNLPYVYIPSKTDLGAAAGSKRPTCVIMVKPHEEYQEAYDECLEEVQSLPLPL
Sequence of telomerase (Q9NY12 whole entry partner): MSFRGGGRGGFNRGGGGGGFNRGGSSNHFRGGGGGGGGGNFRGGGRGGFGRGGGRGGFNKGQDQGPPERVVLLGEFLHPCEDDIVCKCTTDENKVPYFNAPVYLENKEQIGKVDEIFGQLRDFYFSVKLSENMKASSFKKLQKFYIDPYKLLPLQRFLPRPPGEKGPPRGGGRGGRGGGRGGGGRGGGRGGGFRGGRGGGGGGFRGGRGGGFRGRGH
Sequence of telomerase (Q9BUR4 whole entry partner): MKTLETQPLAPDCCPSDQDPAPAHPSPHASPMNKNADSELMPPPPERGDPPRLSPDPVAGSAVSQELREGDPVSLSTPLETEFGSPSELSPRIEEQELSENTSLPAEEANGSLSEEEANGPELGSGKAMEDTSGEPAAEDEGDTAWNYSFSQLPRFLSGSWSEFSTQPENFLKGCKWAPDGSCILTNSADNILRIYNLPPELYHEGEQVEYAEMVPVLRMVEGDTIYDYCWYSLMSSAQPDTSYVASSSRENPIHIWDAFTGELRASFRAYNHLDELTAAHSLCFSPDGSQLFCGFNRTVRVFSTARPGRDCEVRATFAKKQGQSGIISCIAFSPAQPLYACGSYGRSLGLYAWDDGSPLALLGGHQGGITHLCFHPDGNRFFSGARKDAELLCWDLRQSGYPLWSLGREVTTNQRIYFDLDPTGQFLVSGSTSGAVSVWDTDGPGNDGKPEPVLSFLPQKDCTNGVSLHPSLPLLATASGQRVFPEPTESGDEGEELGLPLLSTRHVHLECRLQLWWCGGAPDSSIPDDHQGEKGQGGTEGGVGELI

## O=C1OC[C@H](Cc2cccc(O)c2)[C@H]1Cc1cccc(O)c1 (racemic) [Enterolactone, reference compound]
[1]; PC3, 24 hours, 0.06 μM
  Cell death #1 (%): −3.37%
  Cell death #2 (%): −20.79%
  Cell death #3 (%): −22.43%
  Cell death (%) MEAN: −15.53%
[1]; PC3, 24 hours, 0.17 μM
  Cell death #1 (%): −12.56%
  Cell death #2 (%): −5.41%
  Cell death #3 (%): −10.24%
  Cell death (%) MEAN: −9.40%
[1]; PC3, 24 hours, 0.51 μM
  Cell death #1 (%): −29.78%
  Cell death #2 (%): −35.88%
  Cell death #3 (%): −8.98%
  Cell death (%) MEAN: −24.88%
[1]; PC3, 24 hours, 1.54 μM
  Cell death #1 (%): −30.56%
  Cell death #2 (%): −47.58%
  Cell death #3 (%): −25.82%
  Cell death (%) MEAN: −34.65%
[1]; PC3, 24 hours, 4.63 μM
  Cell death #1 (%): −41.49%
  Cell death #2 (%): −38.59%
  Cell death #3 (%): −32.20%
  Cell death (%) MEAN: −37.42%
[1]; PC3, 24 hours, 13.89 μM
  Cell death #1 (%): −33.85%
  Cell death #2 (%): −41.29%
  Cell death #3 (%): −40.62%
  Cell death (%) MEAN: −38.59%
[1]; PC3, 24 hours, 41.67 μM
  Cell death #1 (%): −32.30%
  Cell death #2 (%): −17.98%
  Cell death #3 (%): −35.59%
  Cell death (%) MEAN: −28.62%
[1]; PC3, 24 hours, 125.00 μM
  Cell death #1 (%): 19.65%
  Cell death #2 (%): 12.01%
  Cell death #3 (%): 15.10%
  Cell death (%) MEAN: 15.59%
[1]; PC3, 72 hours, 0.06 μM
  Cell death #1 (%): −39.68%
  Cell death #2 (%): −40.18%
  Cell death #3 (%): −37.32%
  Cell death (%) MEAN: −39.06%
[1]; PC3, 72 hours, 0.17 μM
  Cell death #1 (%): −49.03%
  Cell death #2 (%): −43.54%
  Cell death #3 (%): −39.93%
  Cell death (%) MEAN: −44.17%
[1]; PC3, 72 hours, 0.51 μM
  Cell death #1 (%): −71.45%
  Cell death #2 (%): −77.56%
  Cell death #3 (%): −73.70%
  Cell death (%) MEAN: −74.24%
[1]; PC3, 72 hours, 1.54 μM
  Cell death #1 (%): −63.98%
  Cell death #2 (%): −69.71%
  Cell death #3 (%): −46.41%
  Cell death (%) MEAN: −60.03%
[1]; PC3, 72 hours, 4.63 μM
  Cell death #1 (%): −74.57%
  Cell death #2 (%): −70.83%
  Cell death #3 (%): −81.17%
  Cell death (%) MEAN: −75.52%
[1]; PC3, 72 hours, 13.89 μM
  Cell death #1 (%): −60.86%
  Cell death #2 (%): −51.02%
  Cell death #3 (%): −63.98%
  Cell death (%) MEAN: −58.62%
[1]; PC3, 72 hours, 41.67 μM
  Cell death #1 (%): −35.45%
  Cell death #2 (%): −32.21%
  Cell death #3 (%): −34.95%
  Cell death (%) MEAN: −34.20%
[1]; PC3, 72 hours, 125.00 μM
  Cell death #1 (%): 35.94%
  Cell death #2 (%): 32.46%
  Cell death #3 (%): 22.11%
  Cell death (%) MEAN: 30.17%
telomerase; MCF7, 24 h
  pIC50: < 4.40
telomerase; MCF7, 48 h
  pIC50: < 4.40
telomerase; MCF7, 72 h
  pIC50: < 4.40
telomerase; MCF7, Q-TRAP
  telomerase activity following treatment as compared to control (untreated) groups: no significant difference in telomerase activity
